Literature values, collected in patent US11753385B2, “Method for producing kakeromycin and derivatives thereof” (OP BIO FACTORY CO., LTD., priority 2015, dated 2023).

Columns and labels:
[1] = tested on: HepG2 liver cancer cell
[2] = tested on: PANC-1 pancreas cancer cell
[3] = tested on: pathogens of candidiasis; conditions: background statement, in words only

CC=C(Cc1ccccc1)C12CC(O)CCN1O2 (stereo not drawn) [kakeromycin]
cytotoxicity [1]: shows cytotoxicity | cytotoxicity [2]: shows cytotoxicity | antibacterial activity against pathogens of candidiasis [3]: strong antibacterial activity
